Measured values as given in patent US20210100777A1, “HEAT SHOCK PROTEIN (HSP) INHIBITION AND MONITORING EFFECTIVENESS THEREOF” (H. LEE MOFFITT CANCER CENTER AND RESEARCH INSTITUTE, INC., priority 2013, published 2021).

Legend:
[1] = test system: heat shock proteins (HSPs) in RPMI-8226 multiple myeloma cells; experiment: LC-MRM quantification of HSP expression before and 24 hours after 17-DMAG (Example 1); assay type: cell-based, human; conditions: 106 nM 17-DMAG
Description: Monitoring HSPs in multiple myeloma cells. RPMI-8226 multiple myeloma cells were cultured in suspension as described above with the addition of 100 units/mL penicillin/streptomycin. Stock 17-dimethylaminoethylamino-17-demethoxy-geldanamycin (17-DMAG) was dissolved in DMSO at a concentration of 10 mM. Based on prior IC50 measurements, the RPMI-8226 cells were treated with 106 nM 17-DMAG for 24 hours.
RPMI-8226 cells (n=10^6) were lysed using […] aqueous 8M urea with 100 mM ammonium bicarbonate. Protein concentration was measured by the Bradford assay and 0.38 μg of protein (equivalent to 3,750 cells) was injected for LC-MRM analysis of control and drug-treated samples. The proteins were reduced with 2 mM TCEP, alkylated with 20 mM IAA, and digested overnight in solution with trypsin at 37° C. Corresponding stable-isotope-labeled internal standard peptides were added to the samples after digestion. Then, peptides were extracted using pipette tips packed with C18 reversed-phase resin (Ziptip, Millipore; Billerica, Mass.) and concentrated to dryness by vacuum centrifugation (Speedvac, Thermo), and resuspended in aqueous 2% ACN with 0.1% formic acid prior to MS. LC-MRM was performed as described above. Quantification is achieved by using the sum of the peak areas for all detected transitions using QuanBrowser (Xcalibur, Thermo, San Jose, Calif.) or Skyline. The ratio of peak area of the endogenous peptide over corresponding internal standard was calculated for each peptide in the sample to enable absolute and relative quantification. Relative protein expression after treatment was normalized to the pretreatment control for each cell line and plotted to show the change in expression after drug treatment. Bubble plots were created using the SigmaPlot 10 (SPSS).

HSPs in 8226/LR5 cells = experiment: DI-MRM relative quantification of HSPs after 17-DMAG (Example 2); assay type: cell-based, human; conditions: for CDC37 Fold Change, DI-MRM / HS90A Fold Change, DI-MRM / HS90B Fold Change, DI-MRM / HSP7C Fold Change, DI-MRM / HSP7E Fold Change, DI-MRM / HSP71 Fold Change, DI-MRM / HSP74 Fold Change, DI-MRM / HSPA5 Fold Change, DI-MRM / HSP90α Fold Change, DI-MRM: 8226/LR5, 50 nM, 24 hrs vs. control
Description: Synthesis and DI MRM of Standard Peptides. Standard peptides were synthesized and characterized as described previously (Remily-Wood et al., Proteomics Clin. Appl. 5:383-96 (2011)). An automated chip-based nanoelectrospray ion source, (NanoMate100, Advion BioSciences, Ithaca, N.Y.), was mounted on a triple quadrupole mass spectrometer (TSQ Vantage, Thermo, San Jose, Calif.). […] (SEQ ID NO:17) were diluted to 1 μM in 50% aqueous ACN with 0.1% formic acid. For synthetic peptide infusion, the spray voltage was tuned between 1.5 and 1.9 kV for stable ion signal. The gas pressure was set to 0.3 psi. Data were acquired at 20 ms per transition for 2 minutes using m/z 0.002 scan widths. The quadrupole resolution values were modulated from 0.2 to 0.7. […]
Cell Culture, Lysis, and HSP Sample Preparation for Mass Spectrometry. RPMI-8226 and 8226/LR5 cells were maintained as previously described (Bellamy et al., Cancer Res. 51:995-1002 (1991); Remily-Wood et al., Proteomics Clin. Appl. 5:383-96 (2011)). The heat shock protein 90 inhibitor, 17-desmethoxy-17-N,N-dimethylaminoethylamino-geldanamycin (17-DMAG), was dissolved in DMSO (100 μM stock). Based on prior IC50 measurements, the RPMI-8226 cells were treated with 100 nM 17-DMAG for 24 hours, and 8226/LR5 cells were treated with 50 nM 17-DMAG. Cells (n=10^6) were lysed using in aqueous 100 mM ammonium bicarbonate containing 8M urea for protein denaturation. Protein concentrations were measured by Bradford assays; consistent aliquots of total protein (380 ng) were injected for LC-MRM, and the same solutions were used for DI-MRM. Digestion, addition of SIS peptides, and mass spectrometry sample preparation were performed as described for standard proteins.
Calculation of Correction Factors to Account for Interference in DI MRM. […] To evaluate the ability to eliminate these contributions, correction factors were calculated based on LC-MRM data using the following set of equations (Equations 1 and 2): […]

melanoma cell lines = experiment: Colony formation assay; assay type: cell-based; conditions: 300 nM, up to 4 weeks; any of the cell lines
Description: Colony formation. Cells (1×10^4 per ml) were grown overnight before being treated with vehicle (DMSO) or XL888 (300 nM) for 4 weeks as described in (Paraiso et al., Br. J. Cancer 102:1724-30 (2010)), and relative colony density was determined by solubilizing the crystal violet dye in 10% acetic acid followed by measurement of absorbance at 450 nm.

[2] = test system: vemurafenib resistant melanoma cell lines grown as 3D collagen implanted spheroids; experiment: 3D spheroid assay; assay type: cell-based; conditions: 1 μM, 144 hours
Description: 3D spheroid assays. Melanoma spheroids were prepared using the liquid overlay method (Smalley et al. Mol Cancer Ther. 5: 1136-1144 (2006)). Spheroids were treated for 144 hours with either vehicle or 1 μM XL888 before being washed (3 times in media) and treated with calcein-AM and ethidium bromide (Molecular Probes, Eugene, Oreg.) for 1 hour at 37° C., to according to the manufacturer's instructions. Pictures of the invading spheroids were taken using a Nikon-300 inverted fluorescence microscope.

[3] = test system: BIM, Mcl-1 and BMF mRNA in vemurafenib-resistant melanoma cell lines; experiment: Quantitative real-time PCR; conditions: 300 nM, 48 hours
[4] = all LC-MRM transitions, interference-corrected
[5] = noise corrected, only transitions below 40% interference

## CO[C@H]1/C=C\C=C(/C)C(=O)NC2=CC(=O)C(NCCN(C)C)=C(C[C@@H](C)C[C@H](OC)[C@H](O)[C@@H](C)/C=C(\C)[C@@H]1OC(N)=O)C2=O [17-DMAG, 17-Dimethylaminoethylamino-17-demethoxygeldanamycin]
[1]
  H90B2 Post-Treatment: 25.3 amol/cell
[1]; peptide ADLINNLR
  HSPB3 Post-Treatment: 0.14 amol/cell
[1]; peptide AFSDPFVEAEK
  HSP74 Post-Treatment: 0.89 amol/cell
[1]; peptide ALLFIPR
  HS90B Post-Treatment: 14.5 amol/cell
[1]; peptide ALLFVPR
  HS90A Post-Treatment: 20.9 amol/cell
[1]; peptide EIAEAYLGGK
  HSP72 Post-Treatment: 0.39 amol/cell
[1]; peptide GTLDPVEK
  HSP7C Post-Treatment: 14.9 amol/cell
[1]; peptide LQAEAQQLR
  CDC37 Post-Treatment: 0.91 amol/cell
[1]; peptide NQVALNPQNTVFDAK
  HSP71 Post-Treatment: 0.051 amol/cell
[1]; peptide VEIIANDQGNR
  GRP78 Post-Treatment: 110 amol/cell
[1]; post- vs pre-treatment
  CDC37 Ratio: 1.07
  GRP78 Ratio: 2.25
  H90B2 Ratio: 1.57
  HS90A Ratio: 1.87
  HS90B Ratio: 1.84
  HSP7C Ratio: 1.93
  HSP71 Ratio: 3.95
  HSP72 Ratio: 1.21
  HSP74 Ratio: 1.23
  HSPB3 Ratio: 1.25
HSPs in 8226/LR5 cells; [4]
  CDC37 Fold Change, DI-MRM: 1.24
  HS90A Fold Change, DI-MRM: 1.12
  HS90B Fold Change, DI-MRM: 1.23
  HSP7C Fold Change, DI-MRM: 0.94
  HSP7E Fold Change, DI-MRM: 0.93
  HSP71 Fold Change, DI-MRM: 5.50
  HSP74 Fold Change, DI-MRM: 1.33
  HSPA5 Fold Change, DI-MRM: 0.86
HSPs in 8226/LR5 cells; [5]
  CDC37 Fold Change, DI-MRM: 1.35
  HS90A Fold Change, DI-MRM: 1.14
  HS90B Fold Change, DI-MRM: 1.23
  HSP7C Fold Change, DI-MRM: 1.14
  HSP7E Fold Change, DI-MRM: 1.05
  HSP71 Fold Change, DI-MRM: 5.51
  HSP74 Fold Change, DI-MRM: 1.41
  HSPA5 Fold Change, DI-MRM: 0.90
HSPs in 8226/LR5 cells; y3 (Least Interference)
  HSP90α Fold Change, DI-MRM: 0.76
HSPs in 8226/LR5 cells; y3-y5 (DI-MRM Interference-Corrected)
  HSP90α Fold Change, DI-MRM: 1.14
HSPs in 8226/LR5 cells; y3-y5 (Selected Transitions)
  HSP90α Fold Change, DI-MRM: 1.13
HSPs in 8226/LR5 cells; y3-y6 (DI-MRM Interference-Corrected)
  HSP90α Fold Change, DI-MRM: 1.12
HSPs in 8226/LR5 cells; 8226/LR5, 24 hours after treatment
  changes in expression of HSP90α, DI-MRM: 1.1 fold

## CC[C@@H](C)Nc1cc(C(=O)N[C@@H]2C[C@H]3CC[C@@H](C2)N3c2ccc(C(=O)C3CC3)cn2)c(C)cc1C(N)=O [XL888, 5-((R)-sec-butylamino)-N1-((1R,3s,5S)-8-(5-(cyclopropanecarbonyl)pyridin-2-yl)-8-azabicyclo[3.2.1]octan-3-yl)-2-methylterephthalamide]
Melanoma cell lines
  colony formation: no signs of colony formation
[2]
  cell death in 3D spheroids: effective at inducing cell death
[3]
  BIM mRNA expression: increase in BIM mRNA
  Mcl-1 expression at the mRNA level: blocked Mcl-1 expression at the mRNA level
[3]; M229R and 1205LuR
  BMF mRNA expression: only weakly induced BMF mRNA expression
